Reference: US4444769A, “Antihypertensive diuretic combination composition and associated method” (Mylan Pharmaceuticals, Inc., priority 1983, dated 1984)

What was measured:
[1] = system: hypertensive individuals who had become hypokalemic
Protocol: In an effort to determine the minimum amount of triamterene needed to reverse the hypokalemia precipitated by hydrochlorothiazide, each subject was continued on hydrochlorothiazide, 50 mg/day administered in a separate tablet, and was also given one of the following daily dosages of triamterene, administered in suspension form throughout the testing period: 0 mg, 25 mg, 50 mg, 75 mg, and 100 mg.

[2] = administration of 100 mg; differently formulated compositions; cited from earlier work

## Nc1nc(N)c2nc(-c3ccccc3)c(N)nc2n1 [triamterene, 2,4,7-triamino-6-phenylpteridine]
[1]; about 75 mg triamterene with 50 mg hydrochlorothiazide
  reversal of hydrochlorothiazide-induced hypokalemia, response: near maximal response
[1]; upper ranges of the doses tested
  effectiveness for reversing hydrochlorothiazide-induced hypokalemia: particularly large in the upper ranges of the doses tested
[2]
  limit in absorptive capacity of the gastrointestinal tract, mean: ~39%
